The term CC50 denotes the concentration giving 50% cytotoxicity. Usually EC50 stands for the concentration that produces a half-maximal response. The term AC50 denotes the concentration at which the activity in the assay is half-maximal.

The structures appear in SMILES notation. Active and inactive are the calls of the source.

This note sets out measurements from ChEMBL document CHEMBL1201862, “PubChem BioAssay data set” (2004).

The nature of experiment [1]: THP-1 cell cytotoxicity, dose response, cytotoxicity control for Vif-APOBEC3G degradation inhibitor project, THP-1 cells (AID 1117359). Type of experiment: functional. The following applies: Human immunodeficiency virus 1, THP-1.
The target in experiment [2] is T1, Low molecular weight phosphotyrosine protein phosphatase (Homo sapiens, UniProt P24666).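 Also: Dose-response confirmation assay measuring inhibition of LMPTP enzyme activity by fluorescence intensity read-out.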
T1 sequence (P24666 whole entry): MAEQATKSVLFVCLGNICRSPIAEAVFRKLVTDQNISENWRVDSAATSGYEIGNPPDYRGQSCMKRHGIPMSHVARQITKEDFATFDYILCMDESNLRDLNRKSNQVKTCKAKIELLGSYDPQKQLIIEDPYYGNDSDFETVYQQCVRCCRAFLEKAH
Type of experiment: functional. The following applies: read-out: IC50_Mean.

In experiment [3] the target is T2, Short transient receptor potential channel 4 (Mus musculus, UniProt Q9QUQ5).
T2 sequence (Q9QUQ5 whole entry): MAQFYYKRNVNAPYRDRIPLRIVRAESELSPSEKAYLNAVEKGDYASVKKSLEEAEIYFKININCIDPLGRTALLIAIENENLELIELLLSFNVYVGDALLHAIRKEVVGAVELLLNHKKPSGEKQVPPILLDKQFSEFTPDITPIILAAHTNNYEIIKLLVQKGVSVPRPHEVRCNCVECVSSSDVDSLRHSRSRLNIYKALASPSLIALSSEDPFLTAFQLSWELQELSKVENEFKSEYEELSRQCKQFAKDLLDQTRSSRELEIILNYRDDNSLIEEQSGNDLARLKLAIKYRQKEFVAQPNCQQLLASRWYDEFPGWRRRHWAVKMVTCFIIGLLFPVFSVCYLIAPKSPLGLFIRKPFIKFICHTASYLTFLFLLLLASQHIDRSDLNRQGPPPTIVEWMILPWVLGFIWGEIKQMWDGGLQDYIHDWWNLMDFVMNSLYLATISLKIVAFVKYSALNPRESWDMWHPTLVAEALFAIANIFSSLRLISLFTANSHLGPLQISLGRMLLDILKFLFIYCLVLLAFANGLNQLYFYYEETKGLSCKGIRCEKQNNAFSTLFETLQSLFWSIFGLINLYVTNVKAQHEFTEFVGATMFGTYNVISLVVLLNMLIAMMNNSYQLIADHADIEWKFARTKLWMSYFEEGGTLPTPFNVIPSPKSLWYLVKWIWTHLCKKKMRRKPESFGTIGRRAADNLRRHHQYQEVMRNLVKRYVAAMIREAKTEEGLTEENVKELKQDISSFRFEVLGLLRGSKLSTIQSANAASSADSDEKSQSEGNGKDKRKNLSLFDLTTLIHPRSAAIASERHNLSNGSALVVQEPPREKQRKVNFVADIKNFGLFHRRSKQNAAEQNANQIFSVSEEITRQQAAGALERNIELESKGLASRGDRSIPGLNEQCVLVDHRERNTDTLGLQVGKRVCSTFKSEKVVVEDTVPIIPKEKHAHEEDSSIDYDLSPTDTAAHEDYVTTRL
Briefly: mouse TRPC4 channel activators, dose response, cell-based, HEK293 TRPC4/mu-opioid, Fluo-4 calcium (AID 434937). Type of experiment: functional.

Experiment [4] in a line: HEp-2 cell cytotoxicity, dose response, cytotoxicity control for RSV inhibitor project, HTS (AID 2410). Type of experiment: functional. The following applies: human respiratory syncytial virus.
Experiment [5] concerns Vero. As to the kind of experiment: cells. As to conditions: Chlorocebus sabaeus. The class given is functional, cell-based.
For experiment [6], the target named is Ras and Rab interactor 1/Tyrosine-protein kinase ABL1 (Homo sapiens, UniProt P00519+Q13671). The class given is functional.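 Also: biochemical TR-FRET dose-response test measuring inhibition of binding between Rin1 and Abl proteins.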
Sequence of Ras and Rab interactor 1/Tyrosine-protein kinase ABL1 (P00519 whole entry): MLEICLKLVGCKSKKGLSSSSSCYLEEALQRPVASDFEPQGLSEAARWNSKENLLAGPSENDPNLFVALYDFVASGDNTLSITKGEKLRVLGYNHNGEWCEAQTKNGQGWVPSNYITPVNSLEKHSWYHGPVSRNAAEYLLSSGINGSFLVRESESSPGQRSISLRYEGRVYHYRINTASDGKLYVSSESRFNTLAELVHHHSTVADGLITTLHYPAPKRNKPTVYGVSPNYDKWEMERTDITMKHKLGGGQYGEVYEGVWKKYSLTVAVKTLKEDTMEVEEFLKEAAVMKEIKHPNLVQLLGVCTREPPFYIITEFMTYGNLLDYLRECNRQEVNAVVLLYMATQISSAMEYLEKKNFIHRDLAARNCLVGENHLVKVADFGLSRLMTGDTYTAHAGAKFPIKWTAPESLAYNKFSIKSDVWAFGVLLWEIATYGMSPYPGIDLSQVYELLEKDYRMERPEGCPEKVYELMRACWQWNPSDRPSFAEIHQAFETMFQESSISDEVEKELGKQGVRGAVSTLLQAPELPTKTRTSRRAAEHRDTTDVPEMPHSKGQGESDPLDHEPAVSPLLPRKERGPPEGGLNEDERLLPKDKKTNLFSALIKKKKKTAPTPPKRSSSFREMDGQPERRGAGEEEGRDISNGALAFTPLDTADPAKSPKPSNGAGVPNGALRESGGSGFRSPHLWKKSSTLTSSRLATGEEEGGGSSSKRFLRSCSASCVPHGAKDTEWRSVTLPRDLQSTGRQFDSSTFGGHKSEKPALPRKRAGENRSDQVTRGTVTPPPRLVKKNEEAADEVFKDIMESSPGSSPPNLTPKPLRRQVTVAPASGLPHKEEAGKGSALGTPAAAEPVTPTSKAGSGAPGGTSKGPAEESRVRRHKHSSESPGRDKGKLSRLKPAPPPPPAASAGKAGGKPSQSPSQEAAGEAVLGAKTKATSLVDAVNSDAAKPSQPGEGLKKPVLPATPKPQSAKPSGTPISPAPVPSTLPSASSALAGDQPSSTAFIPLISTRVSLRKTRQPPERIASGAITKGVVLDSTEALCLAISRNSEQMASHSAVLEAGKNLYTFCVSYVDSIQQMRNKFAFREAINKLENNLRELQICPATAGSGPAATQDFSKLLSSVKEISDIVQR
Sequence of Ras and Rab interactor 1/Tyrosine-protein kinase ABL1 (Q13671 whole entry): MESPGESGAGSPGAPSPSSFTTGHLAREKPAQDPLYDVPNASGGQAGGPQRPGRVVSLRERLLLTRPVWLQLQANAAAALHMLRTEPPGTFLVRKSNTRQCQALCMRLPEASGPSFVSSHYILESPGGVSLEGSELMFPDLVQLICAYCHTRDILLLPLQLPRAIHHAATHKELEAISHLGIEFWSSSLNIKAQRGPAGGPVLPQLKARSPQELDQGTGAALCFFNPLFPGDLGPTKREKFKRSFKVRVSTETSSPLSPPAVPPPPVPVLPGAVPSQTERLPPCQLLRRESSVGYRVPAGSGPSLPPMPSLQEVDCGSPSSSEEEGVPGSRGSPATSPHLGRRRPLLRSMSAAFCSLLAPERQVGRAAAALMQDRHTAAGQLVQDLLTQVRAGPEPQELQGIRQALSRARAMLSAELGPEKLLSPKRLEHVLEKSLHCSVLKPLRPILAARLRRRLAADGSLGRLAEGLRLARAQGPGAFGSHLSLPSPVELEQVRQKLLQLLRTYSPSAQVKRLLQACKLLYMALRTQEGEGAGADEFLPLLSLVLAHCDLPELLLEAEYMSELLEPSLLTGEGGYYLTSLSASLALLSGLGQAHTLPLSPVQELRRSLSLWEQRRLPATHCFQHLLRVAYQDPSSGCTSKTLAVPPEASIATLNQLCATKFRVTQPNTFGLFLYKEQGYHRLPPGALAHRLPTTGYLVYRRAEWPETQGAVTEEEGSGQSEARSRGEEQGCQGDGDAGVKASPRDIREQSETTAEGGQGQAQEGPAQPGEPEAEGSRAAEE
Experiment [7] deals with Glucose-6-phosphate 1-dehydrogenase (Homo sapiens, UniProt P11413). As to the kind of experiment: human G6PD enzyme inhibitors, dose response, selectivity assay for P. falciparum G6PD inhibitor project, biochemical, fluorescence (AID 504792). Type of experiment: functional.
Sequence of Glucose-6-phosphate 1-dehydrogenase (P11413 whole entry): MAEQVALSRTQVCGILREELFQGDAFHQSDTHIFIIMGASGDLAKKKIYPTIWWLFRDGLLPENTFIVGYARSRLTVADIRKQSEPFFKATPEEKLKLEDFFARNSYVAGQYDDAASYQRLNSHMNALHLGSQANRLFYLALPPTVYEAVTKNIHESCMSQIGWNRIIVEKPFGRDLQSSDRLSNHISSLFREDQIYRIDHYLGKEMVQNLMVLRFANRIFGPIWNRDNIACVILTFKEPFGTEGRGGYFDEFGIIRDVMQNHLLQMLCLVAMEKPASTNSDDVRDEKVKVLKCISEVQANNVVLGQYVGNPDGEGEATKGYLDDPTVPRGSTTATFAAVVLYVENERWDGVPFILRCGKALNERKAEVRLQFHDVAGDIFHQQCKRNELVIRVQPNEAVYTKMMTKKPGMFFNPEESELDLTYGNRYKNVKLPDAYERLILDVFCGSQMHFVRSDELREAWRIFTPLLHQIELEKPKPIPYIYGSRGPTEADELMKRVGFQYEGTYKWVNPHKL
Experiment [8] has as its system HEK293. Briefly: cells. Type of experiment: functional, cell-based. The following applies: Homo sapiens.
In experiment [9] the test system is HEK293. Briefly: cells. The following applies: Homo sapiens. Type of experiment: functional, cell-based. This is another data set of the same source.
The test system of experiment [10] is HEK293. Briefly: NOD1 signaling inhibitors, primary screen, cell-based, luminescence, uHTS (AID 1578). The class given is functional. The following applies: Homo sapiens.
For experiment [11], the target named is Nucleotide-binding oligomerization domain-containing protein 2 (Homo sapiens, UniProt Q9HC29). Briefly: NOD2 signaling inhibitors, cell-based, luminescence, uHTS, HEK293 (AID 1566). Type of experiment: functional.
Sequence of Nucleotide-binding oligomerization domain-containing protein 2 (Q9HC29 whole entry, the tested form may be a part): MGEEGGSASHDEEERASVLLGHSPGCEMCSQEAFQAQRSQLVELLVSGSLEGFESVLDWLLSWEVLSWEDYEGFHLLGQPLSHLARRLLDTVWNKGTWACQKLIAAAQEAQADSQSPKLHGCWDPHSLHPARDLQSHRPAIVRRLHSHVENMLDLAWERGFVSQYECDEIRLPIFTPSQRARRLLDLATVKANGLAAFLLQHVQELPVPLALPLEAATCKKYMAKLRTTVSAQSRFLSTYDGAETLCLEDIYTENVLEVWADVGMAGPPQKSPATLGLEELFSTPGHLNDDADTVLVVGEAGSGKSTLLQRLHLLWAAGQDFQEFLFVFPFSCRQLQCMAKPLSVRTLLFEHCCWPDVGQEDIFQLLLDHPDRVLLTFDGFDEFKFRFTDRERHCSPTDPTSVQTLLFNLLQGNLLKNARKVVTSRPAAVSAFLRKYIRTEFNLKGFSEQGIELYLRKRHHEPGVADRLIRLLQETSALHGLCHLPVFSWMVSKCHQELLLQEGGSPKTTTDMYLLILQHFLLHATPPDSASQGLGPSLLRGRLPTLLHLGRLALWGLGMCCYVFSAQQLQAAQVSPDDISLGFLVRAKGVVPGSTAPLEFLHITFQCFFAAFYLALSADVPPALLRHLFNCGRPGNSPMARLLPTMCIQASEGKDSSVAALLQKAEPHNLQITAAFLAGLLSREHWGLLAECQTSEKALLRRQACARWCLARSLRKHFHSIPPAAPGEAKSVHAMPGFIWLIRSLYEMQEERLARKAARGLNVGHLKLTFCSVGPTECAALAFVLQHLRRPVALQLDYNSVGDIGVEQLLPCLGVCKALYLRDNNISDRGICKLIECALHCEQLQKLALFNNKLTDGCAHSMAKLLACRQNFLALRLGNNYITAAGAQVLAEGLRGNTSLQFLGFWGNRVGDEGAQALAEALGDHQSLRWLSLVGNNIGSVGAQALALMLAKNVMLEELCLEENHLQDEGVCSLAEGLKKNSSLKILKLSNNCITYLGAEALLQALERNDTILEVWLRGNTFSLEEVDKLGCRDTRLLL
Experiment [12] deals with T3, Heat shock factor protein 1 (Mus musculus, UniProt P38532).
T3 sequence (P38532 whole entry): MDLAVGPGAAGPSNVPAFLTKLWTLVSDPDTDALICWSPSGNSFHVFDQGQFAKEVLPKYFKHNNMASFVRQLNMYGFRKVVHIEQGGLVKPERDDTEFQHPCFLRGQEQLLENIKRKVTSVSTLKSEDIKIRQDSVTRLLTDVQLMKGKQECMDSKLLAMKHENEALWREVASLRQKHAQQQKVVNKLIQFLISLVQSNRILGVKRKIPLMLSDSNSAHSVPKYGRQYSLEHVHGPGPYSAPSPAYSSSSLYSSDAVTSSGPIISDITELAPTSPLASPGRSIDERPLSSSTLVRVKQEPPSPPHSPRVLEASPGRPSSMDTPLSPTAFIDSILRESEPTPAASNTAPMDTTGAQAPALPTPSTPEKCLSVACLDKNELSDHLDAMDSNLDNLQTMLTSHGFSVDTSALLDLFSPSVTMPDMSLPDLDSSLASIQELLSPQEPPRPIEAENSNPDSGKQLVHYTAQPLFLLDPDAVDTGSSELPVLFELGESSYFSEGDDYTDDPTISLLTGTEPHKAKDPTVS
As to the kind of experiment: HSF1 potentiators in luciferase reporter cells, confirmation, cell-based, NIH3T3, luminescence, dose retest (AID 435004).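 Also: stress induced by proteasome inhibitor MG132 added 30 min after compound; luciferase reporter driven by HSF1 response element in NIH3T3 cells; actives raise luminescence as potentiators of the MG132 stress response.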 Type of experiment: functional. A general note: Reporter assays use an easily measured gene product as a stand-in for the process of interest.

For experiment [13], the system named is HEK293. Briefly: cells. Type of experiment: functional, cell-based. The following applies: Homo sapiens. This is another data set of the same source.
In experiment [14] the test system is HEK293. As to the kind of experiment: NOD2 signaling inhibitors in MDP-stimulated cells, cell-based, uHTS, luminescence (AID 2001). The class given is functional. The following applies: Homo sapiens.
Experiment [15] in a line: Luminescence Cell-Based Dose Retest to Confirm Inhibitors of Cancer Stem Cells. [Related pubchem assays (depositor defined):AID2717, AID2721]. The class given is functional. As to conditions: Homo sapiens.
In experiment [16] the target is FAD-linked sulfhydryl oxidase ALR (Homo sapiens, UniProt P55789). As to the kind of experiment: inhibitors of human ALR sulfhydryl oxidase, dose response, biochemical, H2O2 detection, luminescence, cherry-pick (AID 493248).
Sequence of FAD-linked sulfhydryl oxidase ALR (P55789 whole entry): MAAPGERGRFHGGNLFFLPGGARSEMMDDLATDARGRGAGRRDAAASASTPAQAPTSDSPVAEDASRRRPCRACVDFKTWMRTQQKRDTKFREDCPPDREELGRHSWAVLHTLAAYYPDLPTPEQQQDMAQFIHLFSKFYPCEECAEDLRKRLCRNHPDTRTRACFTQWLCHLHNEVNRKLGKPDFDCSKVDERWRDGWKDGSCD
Experiment [17] is described as follows: C. albicans growth with fluconazole, confirmation, fluorescence, retest (AID 2467). The class given is functional, cell-based.
The nature of experiment [18]: NIH-3T3 fibroblast cytotoxicity, dose response, cytotoxicity control, cell-based, fluorescence, Alamar Blue, secondary assay (AID 2327).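 Also: NIH-3T3 mouse fibroblasts cultured with fluconazole at 8 µg/mL.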 The class given is functional. Background: Alamar Blue is a resazurin reagent that responds to reducing activity.
For experiment [19], the system named is Vero. Briefly: cells. The class given is functional. The following applies: Chlorocebus sabaeus.
Experiment [20] in a line: HepG2 cell cytotoxicity, dose response, cytotoxicity control, cherry-picked samples (AID 1159577). The class given is functional, cell-based.
Experiment [21] is described as follows: P. falciparum Dd2 growth inhibitors, dose response, SYBR Green, cherry-picked samples (AID 1159567). The class given is functional, cell-based.

On to `Cc1cc(C(=O)CCl)c(C)n1-c1c(C)n(C)n(-c2ccccc2)c1=O`, for which the CC50 in experiment [1] was > 40 µM (active).

Turning to `NC1=NC2(CCN(Cc3ccccc3)CC2)n2c(nc3ccccc32)N1`, in experiment [2], the IC50 was 27.1 µM (inactive). The EC50 in experiment [3] was 0.299 µM (active).

Take `Cc1sc(NC(=S)NC(=O)c2ccc(C(C)(C)C)cc2)c(C#N)c1C`: in experiment [4], the CC50 was 46.8 µM (active). The IC50 in experiment [5] is 13.9 µM (active).

Regarding `COC(=O)c1ccc(CSc2nnc(CNC(=O)COc3ccc(Cl)cc3)o2)o1`, the IC50 in experiment [6] was 21.4 µM (inactive).

Turning to `CC1(OC(=O)C2CCCC2)C(=O)C=C2C=C(c3ccsc3)N(CC3CC3)C=C2C1=O` (centres undefined), the IC50 in [7] is 64.3 µM (inactive).

As for `Cc1ccc(C(=O)NC(=C(Cl)Cl)S(=O)(=O)c2ccc(Cl)cc2)cc1`, the IC50 in experiment [8] was > 20 µM (inactive); in experiment [9], > 20 µM (inactive); in experiment [13] it was 3.42 µM (active); in experiment [14], 5.03 µM (inactive). The figures for the EC50 in experiment [10], in experiment [11] and in experiment [12] were 2.2 µM (active), > 20 µM (inactive) and 7.82 µM (active), respectively.

Take `CC1(C)CN(c2ccccc2)N(C(=O)c2ccc(C#N)cc2)C1=O`: the AC50 in [15] is 3.56 µM (active); in experiment [16], 1.72 µM (active). In addition, the EC50 in experiment [17] is > 38 µM (not active); in experiment [18], 4.88 µM (active). Also, in experiment [7], the IC50 was > 80 µM (inactive).

On to `Cc1c(CCO)c(=O)[nH]n1C(=O)c1c(F)cccc1F`, for which, in experiment [5], the IC50 is 15.4 µM (active). In experiment [19], the half-maximal cytotoxic concentration (CC50) is > 25 µM (active).

Consider `CCOc1ccccc1Nc1nnc(SC(C)C(=O)Nc2nc(-c3ccccc3)cs2)s1` (centres undefined), for which, in experiment [5], the IC50 was > 12.5 µM (active).

On to `CCOc1ccc(N(CC(=O)N2CCC(Cc3ccccc3)CC2)S(C)(=O)=O)cc1`, for which, in experiment [1], the 50% cytotoxic concentration (CC50) was > 40 µM (active).

`COc1ccc(C2c3c(nc[nH]c3=O)Oc3nc[nH]c(=O)c32)cc1`: in experiment [6], the IC50 was 2.87 µM (active).

As to `CN(C(=O)CCN1C(=O)/C(=C/c2ccccc2)SC1=S)C1CCS(=O)(=O)C1` (centres undefined), the 50% cytotoxic concentration (CC50) in experiment [19] was 21.2 µM (active).

For `CN(C(=O)c1ccc(NC(=O)Cc2cccc(NC(=O)C3CCN(C(=O)c4ccccc4)CC3)c2)cc1)C1CC1`, the IC50 in experiment [6] was 15.3 µM (inactive).

Regarding `CC(C)NC(=O)N1CCCCN2[C@H](CO)[C@@H](c3ccc(C#C[C@@H](C)O)cc3)[C@@H]2C1`, the values for the AC50 in experiment [20] and in experiment [21] were > 39 µM (inactive) and 27.8 µM (active), respectively.

As to `Cc1cccc(-c2ccc([C@@H]3[C@@H](CO)N4CCCCN(CCC(F)(F)F)C[C@H]34)cc2)c1`, the results for the AC50 in [20] and in experiment [21] were 8.79 µM (active) and 0.801 µM (active), respectively.

Turning to `O=C(C[C@H]1C[C@@H]2c3cc(NC(=O)c4cccnc4)ccc3O[C@@H]2[C@@H](CO)O1)NCc1ccc(Oc2ccccc2)cc1`, the values for the AC50 in experiment [20] and in experiment [21] were > 39 µM (inactive) and 13.7 µM (active), respectively.

For the compound `COc1ccc(S(=O)(=O)N2CCC3(CC2)CN(C(=O)CN(C)C)[C@@H](CO)c2c3c3ccc(OC)cc3n2C)cc1`, the AC50 in [20] is 18.8 µM (active); in experiment [21] it was 2.53 µM (active).
